In paper PMC6017357, “In Vitro Inhibitory Effects of Synthetic Cannabinoid EAM-2201 on Cytochrome P450 and UDP-Glucuronosyltransferase Enzyme Activities in Human Liver Microsomes” (Molecules : A Journal of Synthetic Chemistry and Natural …, 2018):

Target: T1, UGT1A3 (Homo sapiens, UniProt P35503)
T1 sequence (P35503 29-534): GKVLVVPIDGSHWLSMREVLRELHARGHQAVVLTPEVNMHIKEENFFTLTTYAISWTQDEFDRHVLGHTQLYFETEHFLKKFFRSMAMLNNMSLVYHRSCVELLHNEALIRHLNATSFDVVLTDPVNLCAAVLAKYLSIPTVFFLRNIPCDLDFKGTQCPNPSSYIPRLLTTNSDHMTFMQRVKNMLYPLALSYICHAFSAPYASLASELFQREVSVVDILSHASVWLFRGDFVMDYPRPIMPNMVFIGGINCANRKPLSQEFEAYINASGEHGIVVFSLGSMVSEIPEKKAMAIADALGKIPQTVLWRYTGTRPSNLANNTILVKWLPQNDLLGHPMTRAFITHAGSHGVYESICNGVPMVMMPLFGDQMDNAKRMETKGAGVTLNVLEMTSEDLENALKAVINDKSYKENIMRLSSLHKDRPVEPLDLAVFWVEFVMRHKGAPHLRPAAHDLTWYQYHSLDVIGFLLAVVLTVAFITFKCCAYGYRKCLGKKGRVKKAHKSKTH
Assay: UGT1A3-catalyzed chenodeoxycholic acid 24-acyl-glucuronidation in human liver microsomes
Assay type: in vitro ADME
Set-up: from tissue; host or cells: ultrapooled human liver microsomes
Protocol: The inhibitory effects of EAM-2201 on UGT1A1, UGT1A3, UGT1A4, UGT1A6, UGT1A9 and UGT2B7 were evaluated using LC-MS/MS and the cocktail of UGT substrates as previously described. […] Supernatant from sets A and B (50 µL of each) was mixed and aliquots (5 µL) were analyzed by LC-MS/MS. […]
Reactions were initiated by adding UDPGA at 37 °C and stopped after 60 min by adding 100 µL ice-cold methanol containing propofol glucuronide (internal standard). […] Aliquots (5 µL) of the diluted supernatants were analyzed using LC-MS/MS.
The metabolites formed from the six UGT cocktail substrates were simultaneously measured using LC-MS/MS [41]. […] Each metabolite was quantified via SRM in the negative ion mode: chenodeoxycholic acid 24-acyl-β-glucuronide, 567.2 > 391.0; mycophenolic acid glucuronide, 495.2 > 318.9; and propofol glucuronide (IS), 353.3 > 177.1; and in the positive ion mode: SN-38 glucuronide, 569.0 > 393.0; trifluoperazine glucuronide, 584.2 > 408.1; N-acetylserotonin-β-D-glucuronide, 395.2 > 219.0; naloxone 3-β-D-glucuronide, 504.0 > 310.0; and meloxicam (IS), 352.0 > 115.1. […]

CCc1ccc(C(=O)c2cn(CCCCCF)c3ccccc23)c2ccccc12 [EAM-2201, (4-ethyl-1-naphthalenyl)[1-(5-fluoropentyl)-1H-indol-3-yl]-methanone]
IC50: 11.7 µM
Ki: 2.4 µM
